Earlier results, collected in patent publication US20210059962A1, “STIMULATION OF T REGULATORY CELLS BY CANNABIDIOL AS A MEANS OF TREATING ARTHRITIS AND AUTOIMMUNITY” (priority 2019, published 2021).

Assays:
[1] = test system: HUT-78 T-cells
[2] = test system: eosinophilic cells
[3] = test system: HTLV-1 positive B-cells
[4] = test system: B-cells
[5] = test system: NK cells

SMILES	IL-10 production [1]	IL-8 production [2]	MIP-lbeta production [2]	MIP-lbeta production [3]	IL-8 production [4]	MIP-1alpha production [4]	MIP-1beta production [4]	constitutive production of IL-8 ([5]; constitutive)	constitutive production of MIP-lalpha ([5]; constitutive)	constitutive production of MIP-lbeta ([5]; constitutive)	constitutive production of RANTES ([5]; constitutive)	phorbol ester stimulated production of GM-CSF ([5]; phorbol ester stimulated)	phorbol ester stimulated production of IFN-gamma ([5]; phorbol ester stimulated)	phorbol ester stimulated production of TNF-alpha ([5]; phorbol ester stimulated)
C=C(C)[C@@H]1CCC(C)=C[C@H]1c1c(O)cc(CCCCC)cc1O [CBD, 2-[3-methyl-6-(1-methylethenyl)-2-cyclohexen-1-yl]-5-pentyl-1,3-benzenedi-of]	strongly inhibited	–	–	–	–	–	–	–	–	–	–	–	–	–
CCCCCc1cc(O)c2c(c1)OC(C)(C)[C@@H]1CCC(C)=C[C@@H]21 [THC, delta9 tetrahydrocannabinol]	strongly inhibited	doubled	tripled	inhibited	tripled	tripled	tripled	decreased	decreased	decreased	decreased	decreased	decreased	decreased
